Test systems include TK-10 renal; MCF7 breast; MDA-MB-231 breast; PC-3 prostate; UO-31 renal; SK-MEL-2 melanoma; UACC-257 melanoma; HCT-116 colon; HL-60(TB) leukemia; CCRF-CEM leukemia.
Common to all, as to assay: NCI anticancer screen, dose series, 48 h

Where “and” joins values, the source holds several entries; their conditions need not be identical. Equal values may be shown once.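 Protocol summary: plate cells (96-well), add compound at 5 concentrations, incubate 48 h, interpolate endpoints linearly. The concentration for 50% growth inhibition is given as GI50. TGI denotes the concentration required for complete inhibition of growth.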 Where a SMILES comes first, the peptide text is derived from it. Bridges are numbered along the chain shown (N, C = ends). [ ]: non-standard residue; d: D form. The star is where a group is joined. ξ: configuration not given here. ξDab(CH2SO3H) = NC(CCNCS(=O)(=O)O)C(=O)O; Heptanoyl(6-Me) = CC(C)CCCCC(=O)*; Dab = NCC[CH](N)C(=O)O

On to `CCC(C)C1NC(=O)C(CCNCS(=O)(=O)O)NC(=O)C(NC(=O)C(CCNCS(=O)(=O)O)NC(=O)C(NC(=O)C(CCNCS(=O)(=O)O)NC(=O)CCCCC(C)C)C(C)O)CCNC(=O)C(C(C)O)NC(=O)C(CCNCS(=O)(=O)O)NC(=O)C(CCNCS(=O)(=O)O)NC(=O)C(C(C)CC)NC1=O` (stereo unspecified) ({Heptanoyl(6-Me)}-[ξDab(CH2SO3H)]T[ξDab(CH2SO3H)][Dab][ξDab(CH2SO3H)]II[ξDab(CH2SO3H)][ξDab(CH2SO3H)]T; lactam 4-C; configuration not given here), for which the GI50 in the assay with TK-10 renal is above 25 µM; with MCF7 breast, 4.71 µM; in the assay with MDA-MB-231 breast, 5.82 µM; in the assay on PC-3 prostate, 7.97 µM; in the assay on UO-31 renal, above 25 µM; with SK-MEL-2 melanoma, 4.9 µM. In addition, the GI50 is 11.7 µM with UACC-257 melanoma, 7.33 µM in the assay on HCT-116 colon and 5.23 µM in the assay on HL-60(TB) leukemia. For the same compound, the TGI in the assay on TK-10 renal, in the assay with MCF7 breast, in the assay on MDA-MB-231 breast, in the assay on PC-3 prostate, in the assay with UO-31 renal and with SK-MEL-2 melanoma was above 25 µM in each case. Also, the TGI in the assay with UACC-257 melanoma is above 25 µM; in the assay on HCT-116 colon, above 25 µM; in the assay on HL-60(TB) leukemia, 16.9 µM.

In the case of `[Cl][Hg][c]1ccc(Cl)s1`, the GI50 in the assay with TK-10 renal is 1.66 µM; in the assay with PC-3 prostate, 5.62 µM; with UO-31 renal, 1.78 µM; with SK-MEL-2 melanoma, 4.65 µM; in the assay with UACC-257 melanoma it was 1.54 µM; in the assay on HCT-116 colon it was 1.49 µM. In addition, the figures for the GI50 in the assay with CCRF-CEM leukemia and in the assay with HL-60(TB) leukemia were 0.326 µM and 2.1 µM, respectively. For the same compound, the TGI with TK-10 renal came to 3.09 µM; in the assay with PC-3 prostate it was 16.2 µM; in the assay on UO-31 renal, 3.26 µM; in the assay on SK-MEL-2 melanoma, 17.6 µM; with UACC-257 melanoma, 3.04 µM; in the assay on HCT-116 colon, 2.97 µM. For the same compound, the TGI stood at 3.99 µM in the assay on CCRF-CEM leukemia and 6.29 µM with HL-60(TB) leukemia.

As for `COc1cc(-c2oc3c(OC)cc(OC)c(O)c3c(=O)c2OC)cc(OC)c1OC`, the TGI in the assay on TK-10 renal, with MCF7 breast, in the assay on MDA-MB-231 breast, in the assay on PC-3 prostate, in the assay with UO-31 renal and in the assay on HCT-116 colon was above 100 µM in each case. Besides, the TGI in the assay on HL-60(TB) leukemia was above 100 µM.

`COc1ccc2c(c1)oc(=O)c1cc(OC)ccc12`: the GI50 was above 100 µM with TK-10 renal; above 100 µM with MCF7 breast; above 100 µM with MDA-MB-231 breast; above 100 µM with PC-3 prostate; 32.9 µM with UO-31 renal; above 100 µM in the assay with SK-MEL-2 melanoma. Also, the GI50 with UACC-257 melanoma, in the assay with HCT-116 colon and in the assay on CCRF-CEM leukemia was above 100 µM each time. In addition, the TGI in the assay on TK-10 renal, with MCF7 breast, with MDA-MB-231 breast, with PC-3 prostate, in the assay with UO-31 renal and in the assay on SK-MEL-2 melanoma was above 100 µM throughout. Besides, the TGI with UACC-257 melanoma, in the assay on HCT-116 colon and in the assay on CCRF-CEM leukemia was above 100 µM each time.

Turning to `Cc1ccc(NC(=O)c2cc3ccccc3c(N=Nc3cc(S(=O)(=O)O)ccc3O)c2O)c(C)c1`, the TGI is above 100 µM with TK-10 renal; above 100 µM in the assay with MDA-MB-231 breast; above 100 µM in the assay on PC-3 prostate; 34.1 µM in the assay with UO-31 renal; 78.5 µM in the assay with SK-MEL-2 melanoma; above 100 µM in the assay on UACC-257 melanoma. Further, the TGI in the assay on HCT-116 colon was above 100 µM; with CCRF-CEM leukemia, 19.6 µM.

With `N#C[Se]CCN1C(=O)C2C(C1=O)[C@H]1C=C[C@@H]2S1` (stereo partly specified), the GI50 was 2.16 µM with TK-10 renal; 2.37 µM with MCF7 breast; 2.24 µM in the assay on MDA-MB-231 breast; 2.11 µM in the assay with PC-3 prostate; 1.36 µM with UO-31 renal; 2.44 µM with SK-MEL-2 melanoma. Besides, the GI50 in the assay on UACC-257 melanoma was 1.97 µM; with HCT-116 colon, 1.85 µM; in the assay with CCRF-CEM leukemia, 1.84 µM. Also, the TGI came to 4.44 µM in the assay on TK-10 renal; 9.19 µM in the assay with MCF7 breast; 5.2 µM with MDA-MB-231 breast; 5.9 µM in the assay with PC-3 prostate; 2.9 µM in the assay with UO-31 renal; 6.43 µM in the assay with SK-MEL-2 melanoma. The results for the TGI in the assay with UACC-257 melanoma, in the assay with HCT-116 colon and in the assay on CCRF-CEM leukemia were 5.4 µM, 4.35 µM and 6.14 µM, respectively.

As to `O=c1[nH]c(=O)c2cc3cc(C4CC(O)C(CO)O4)ccc3cc2[nH]1` (stereo unspecified), the GI50 was above 100 µM in the assay with MCF7 breast; 65.7 µM in the assay on MDA-MB-231 breast; above 100 µM in the assay with PC-3 prostate; 8.48 µM in the assay with UO-31 renal; 11.3 µM in the assay with SK-MEL-2 melanoma; above 100 µM in the assay with UACC-257 melanoma. Besides, the GI50 with HCT-116 colon and with CCRF-CEM leukemia was above 100 µM each time. For the same compound, the TGI in the assay with MCF7 breast was above 100 µM; in the assay with MDA-MB-231 breast it was above 100 µM; with PC-3 prostate, above 100 µM; in the assay with UO-31 renal it was 67 µM; in the assay with SK-MEL-2 melanoma, above 100 µM; in the assay with UACC-257 melanoma, above 100 µM. For the same compound, the TGI in the assay on HCT-116 colon and in the assay on CCRF-CEM leukemia was above 100 µM in each case.

For the compound `COc1cccc(/C=N/NC(=O)c2ccccc2N2CCCC2)c1O`, the GI50 in the assay with TK-10 renal is 5.38 µM; with MDA-MB-231 breast it was 7.31 µM; in the assay on PC-3 prostate it was 6.48 µM; in the assay on UO-31 renal, 2.28 µM; in the assay with SK-MEL-2 melanoma, 54 µM; in the assay with UACC-257 melanoma, 3.05 µM. The figures for the GI50 in the assay with HCT-116 colon and in the assay with CCRF-CEM leukemia were 3.3 µM and 0.712 µM, respectively. Further, the TGI in the assay on TK-10 renal, with MDA-MB-231 breast, with PC-3 prostate, in the assay with UO-31 renal, in the assay on SK-MEL-2 melanoma and in the assay with UACC-257 melanoma was above 100 µM throughout. Also, the TGI with HCT-116 colon and with CCRF-CEM leukemia was above 100 µM each time.

Take `CCCCCCCCCCCC(=O)N1CCN(C(C)=O)CC1`: the GI50 with TK-10 renal is 31 µM; in the assay on MCF7 breast, 17.6 µM; in the assay with MDA-MB-231 breast, 21 µM; in the assay on PC-3 prostate it was 17.8 µM; in the assay with UO-31 renal, 18.7 µM; in the assay on SK-MEL-2 melanoma, 19.2 µM. Also, the GI50 in the assay on UACC-257 melanoma is 19.4 µM; in the assay with HCT-116 colon, 22.5 µM; in the assay on CCRF-CEM leukemia, 18.7 µM. The TGI with TK-10 renal was found to be 72.1 µM; in the assay with MCF7 breast it was 32.8 µM; in the assay on MDA-MB-231 breast, 38.2 µM; in the assay with PC-3 prostate it was 34.5 µM; with UO-31 renal, 42.6 µM; in the assay on SK-MEL-2 melanoma, 35.7 µM. Also, the figures for the TGI in the assay on UACC-257 melanoma, with HCT-116 colon and in the assay on CCRF-CEM leukemia were 36.9 µM, 63.4 µM and 40.6 µM, respectively.

Consider `O=C(OC1CCC2OOC1O2)c1ccc([N+](=O)[O-])cc1` (stereo unspecified), for which the TGI in the assay with TK-10 renal, in the assay on UO-31 renal, in the assay on SK-MEL-2 melanoma, in the assay with UACC-257 melanoma, with HCT-116 colon and with CCRF-CEM leukemia was above 100 µM each time. Further, in the assay with HL-60(TB) leukemia, the TGI was above 100 µM.

As to `NC1CCCCC1N.O=[Se]([O-])[O-].[Pt+4]` (stereo unspecified), the GI50 was 28.4 µM in the assay on TK-10 renal; 1.05 µM in the assay with UO-31 renal; 6 µM with SK-MEL-2 melanoma; 2.18 µM in the assay on UACC-257 melanoma; 0.236 µM in the assay with HCT-116 colon; 0.203 µM with CCRF-CEM leukemia. Also, the GI50 in the assay on HL-60(TB) leukemia is 0.315 µM. For the same compound, the TGI in the assay on TK-10 renal is above 100 µM; with UO-31 renal it was 16.7 µM; in the assay with SK-MEL-2 melanoma it was 31.1 µM; in the assay on UACC-257 melanoma, above 64.8 µM; in the assay on HCT-116 colon, above 45.2 µM; with CCRF-CEM leukemia, 97.7 µM. The compound further showed a TGI with HL-60(TB) leukemia above 28.9 µM.

With `O=C(NCc1cccnc1)C1COc2cc(-c3cc(=O)c4ccccc4o3)ccc2O1` (stereo unspecified), the TGI with TK-10 renal is above 83.4 µM; with UO-31 renal, above 100 µM; in the assay with SK-MEL-2 melanoma, above 68.7 µM; with UACC-257 melanoma, above 100 µM; with HCT-116 colon it was above 100 µM; in the assay on CCRF-CEM leukemia it was above 100 µM. Further, the TGI with HL-60(TB) leukemia is above 46.4 µM.

Take `COc1cc(O)c2c(c1)O[C@@H]1OCC[C@H]21`: the TGI with TK-10 renal, in the assay on UO-31 renal, with SK-MEL-2 melanoma, in the assay with UACC-257 melanoma, in the assay on HCT-116 colon and in the assay on CCRF-CEM leukemia was above 100 µM each time. Further, the TGI in the assay with HL-60(TB) leukemia is above 100 µM.

Consider `Cc1cc(C)n(-c2ccnc3cc(Cl)ccc23)n1`, for which the TGI in the assay with TK-10 renal, in the assay on UO-31 renal, with SK-MEL-2 melanoma, in the assay with UACC-257 melanoma, with HCT-116 colon and with CCRF-CEM leukemia was above 100 µM in each case. This compound returned a TGI in the assay on HL-60(TB) leukemia above 100 µM.

With `C(=N\Nc1ccccc1)/c1nc2ccccc2nc1/C=N/Nc1ccccc1`, the TGI in the assay on TK-10 renal is 31.6 µM; with UO-31 renal, above 84.6 µM; in the assay with SK-MEL-2 melanoma it was 39.3 µM; with UACC-257 melanoma, 58.2 µM; in the assay on HCT-116 colon, 25.7 µM; with CCRF-CEM leukemia, above 100 µM. In the assay with HL-60(TB) leukemia, this compound displayed a TGI above 100 µM.

Regarding `COc1cc2c(c(OC)c1OC)-c1ccc(OC)c(=O)cc1[C@@H](NC(C)=O)CC2`, the GI50 with TK-10 renal was above 100 µM; with MCF7 breast, < 0.01 µM and 0.00342 µM and < 0.0114 µM; with MDA-MB-231 breast, 7.13 µM; with UO-31 renal, 4.74 µM and 1.09 µM and 1.33 µM; in the assay with SK-MEL-2 melanoma, 0.48 µM; in the assay with HCT-116 colon, < 0.01 µM and 0.0625 µM. The TGI in the assay with TK-10 renal was above 100 µM; in the assay on MDA-MB-231 breast, above 100 µM; with PC-3 prostate it was above 100 µM; in the assay with UO-31 renal, above 625 µM.

As to `Nc1nc(Cl)cc(NCC(O)CO)n1` (stereo unspecified), the TGI in the assay with TK-10 renal, in the assay with UO-31 renal, in the assay with SK-MEL-2 melanoma, with UACC-257 melanoma, in the assay with HCT-116 colon and in the assay with CCRF-CEM leukemia was above 100 µM throughout. In the assay with HL-60(TB) leukemia, the TGI was above 100 µM.

Source of the values: PubChem BioAssay (NCI).
